# Experimental data from ChEMBL document CHEMBL1158561, “Synthesis of 4-(3-biaryl)quinoline sulfones as potent liver X receptor agonists” (Bioorg Med Chem Lett, 2010).
# Legend:
# J774 = test: cells; details: Mus musculus
# HepG2 = test: cells; details: Homo sapiens
# Huh-7 = test: Upregulation of SREB1c mRNA level in human HuH7 cells; type: functional, cell-based
# [1] = Half life in rat liver microsome; type: ADME; details: liver microsomes
# [2] = Half life in human liver microsome; type: ADME; details: liver microsomes
# [3] = molecular target: T1, Oxysterols receptor LXR-alpha (Homo sapiens, UniProt Q13133); test: Displacement of [3H]T0901317 from LXRalpha ligand binding domain
# T1 sequence (Q13133 whole entry): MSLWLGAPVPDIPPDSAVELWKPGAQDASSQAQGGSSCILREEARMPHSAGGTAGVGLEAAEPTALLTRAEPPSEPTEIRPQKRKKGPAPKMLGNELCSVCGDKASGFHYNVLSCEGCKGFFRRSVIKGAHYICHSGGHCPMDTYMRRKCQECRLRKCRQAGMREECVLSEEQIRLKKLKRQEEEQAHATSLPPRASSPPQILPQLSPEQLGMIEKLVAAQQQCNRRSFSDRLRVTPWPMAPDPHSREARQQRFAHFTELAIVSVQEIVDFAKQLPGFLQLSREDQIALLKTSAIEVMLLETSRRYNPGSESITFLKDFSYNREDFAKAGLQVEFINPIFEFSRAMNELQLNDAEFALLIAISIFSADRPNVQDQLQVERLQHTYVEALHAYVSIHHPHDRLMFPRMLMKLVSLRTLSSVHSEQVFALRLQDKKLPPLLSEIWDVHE
# [4] = Tmax in C57 mouse at 10 mg/kg, po; type: ADME, organism-based; design: dose 10 mg/kg, route oral; details: in vivo
# [5] = Half life in C57 mouse at 10 mg/kg, po; type: ADME, organism-based; design: dose 10 mg/kg, route oral; details: in vivo
# [6] = AUC (0 to infinity) in C57 mouse at 10 mg/kg, po; type: ADME, organism-based; design: time infinity, dose 10 mg/kg, route oral; details: plasma
# [7] = Cmax in C57 mouse at 10 mg/kg, po; type: ADME, organism-based; design: dose 10 mg/kg, route oral; details: in vivo
# [8] = Oral bioavailability in C57 mouse at 10 mg/kg; type: ADME, organism-based; details: in vivo
# [9] = molecular target: Oxysterols receptor LXR-beta (Homo sapiens, UniProt P55055); test: Displacement of [3H]T0901317 from LXRbeta ligand binding domain
# Oxysterols receptor LXR-beta, sequence (P55055 whole entry, the tested form may be a part): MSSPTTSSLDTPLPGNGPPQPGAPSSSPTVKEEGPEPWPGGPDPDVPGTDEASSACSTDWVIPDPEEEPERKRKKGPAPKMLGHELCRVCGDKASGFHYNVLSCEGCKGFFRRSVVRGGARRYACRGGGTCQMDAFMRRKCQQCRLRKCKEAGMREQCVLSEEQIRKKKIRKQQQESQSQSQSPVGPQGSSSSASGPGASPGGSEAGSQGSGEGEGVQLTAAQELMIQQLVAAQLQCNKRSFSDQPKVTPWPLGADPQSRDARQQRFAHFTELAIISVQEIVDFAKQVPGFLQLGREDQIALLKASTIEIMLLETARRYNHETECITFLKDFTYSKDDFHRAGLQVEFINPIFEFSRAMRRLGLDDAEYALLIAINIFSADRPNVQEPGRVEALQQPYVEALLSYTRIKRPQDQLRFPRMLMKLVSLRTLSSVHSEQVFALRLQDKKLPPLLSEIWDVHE
Compound,EC50 (J774) [nM],EC50 (HepG2) [nM],EC50 (Huh-7) [nM],half-life [1] [min],half-life [2] [min],also measured
Cc1cnc2c(C(F)(F)F)cccc2c1-c1cccc(-c2cccc(S(C)(=O)=O)c2)c1,23,23,52,> 30,,
Cc1cnc2c(C(F)(F)F)cccc2c1-c1cccc(-c2ccc(S(C)(=O)=O)cc2)c1,,,,> 30,> 30,IC50 [3]: > 1000 nM
CS(=O)(=O)c1cccc(-c2cccc(-c3ccnc4c(C(F)(F)F)cccc34)c2)c1,77,77,440,> 30,> 30,Tmax [4]: 60 min; half-life [5]: 834 min; AUC(0-inf) [6]: 3010 ng·h/mL; Cmax [7]: 106 ng/mL; bioavailability [8]: 100%
CS(=O)(=O)c1ccc(-c2cccc(-c3ccnc4c(C(F)(F)F)cccc34)c2)cc1,,,,> 30,> 30,IC50 [9]: > 1000 nM; IC50 [3]: > 1000 nM
CCCc1cnc2c(C(F)(F)F)cccc2c1-c1cccc(-c2cccc(S(C)(=O)=O)c2)c1,0.4,0.4,8,> 30,> 30,
CS(=O)(=O)c1cc(-c2cccc(-c3ccnc4c(C(F)(F)F)cccc34)c2)c(F)cc1F,11,133,132,> 30,> 30,
Cc1cnc2c(C(F)(F)F)cccc2c1-c1cccc(-c2ccc(F)c(S(C)(=O)=O)c2)c1,,,,19,> 30,
Cc1cnc2c(C(F)(F)F)cccc2c1-c1cccc(-c2cc(S(C)(=O)=O)c(F)cc2F)c1,,,,> 30,> 30,
CS(=O)(=O)c1cc(-c2cccc(-c3ccnc4c(C(F)(F)F)cccc34)c2)ccc1F,140,41,,12,> 30,
CC(C)c1cnc2c(C(F)(F)F)cccc2c1-c1cccc(-c2cccc(S(C)(=O)=O)c2)c1,0.5,0.5,6,> 30,> 30,
CS(=O)(=O)c1cccc(-c2cccc(-c3c(Cc4ccccc4)cnc4c(C(F)(F)F)cccc34)c2)c1,,,,16,,
CS(=O)(=O)c1ccc(-c2cccc(-c3c(Cc4ccccc4)cnc4c(C(F)(F)F)cccc34)c2)cc1,571,571,571,7,27,
CCc1cnc2c(C(F)(F)F)cccc2c1-c1cccc(-c2cccc(S(C)(=O)=O)c2)c1,0.7,0.7,8,> 30,> 30,
CCS(=O)(=O)c1cccc(-c2cccc(-c3ccnc4c(C(F)(F)F)cccc34)c2)c1,156,156,521,> 30,> 30,
CCS(=O)(=O)c1cccc(-c2cccc(-c3c(C)cnc4c(C(F)(F)F)cccc34)c2)c1,190,190,250,> 30,> 30,
Cc1ccc(-c2cccc(-c3c(C)cnc4c(C(F)(F)F)cccc34)c2)cc1S(C)(=O)=O,,,,27,> 30,
COc1ccc(-c2cccc(-c3c(C)cnc4c(C(F)(F)F)cccc34)c2)cc1S(C)(=O)=O,,,,,> 30,IC50 [3]: > 1000 nM
O=S(=O)(c1ccccc1)N(CC(F)(F)F)c1ccc(C(O)(C(F)(F)F)C(F)(F)F)cc1 [T091317],,107,36,> 30,> 30,
